Results on 2 compounds are retold here after US11420947B2, “(S)-n-hydroxy-2-(2-(4-methoxyphenyl)butanamido)thiazole-5-carboxamide and pharmaceutically acceptable salts thereof” (TRANSLATIONAL DRUG DEVELOPMENT, LLC, priority 2018, dated 2022).

The nature of data set [1]: Tumor uptake and retention (FIG. 2). It is filed as in vivo. An excerpt: Volume of distribution is one of the most important pharmacokinetic properties of a drug candidate and for an anticancer drug can result in increased drug distribution to the tumor.
The target in data set [2] is T1, HDAC9 (Homo sapiens, UniProt Q9UKV0).
T1 construct: purchased BPS 50009
Kind of data set: Inhibition of HDAC enzymes, 12-point concentration-response. Format: biochemical. As to the method: (§1) Compounds were tested in a 12-point concentration-response format against 11 HDAC enzymes as outlined in Table 2A. Test compounds were diluted in 100% DMSO using 3-fold dilution steps. The final compound concentration in the assay ranged from 100 μM to 0.565 nM or as requested. Compounds were tested in a single well for each dilution, and the final concentration of DMSO in all assays was kept at 1%. Reference compounds were tested in an identical manner.

The target of data set [3] is T2, HDAC4 (Homo sapiens, UniProt P56524).
T2 construct: made in house
The data set is described as above. It is filed as biochemical. As to the method: as §1

pIC50: −log10 of the molar value.

T1 sequence (Q9UKV0 1-1066 isoform Q9UKV0-5): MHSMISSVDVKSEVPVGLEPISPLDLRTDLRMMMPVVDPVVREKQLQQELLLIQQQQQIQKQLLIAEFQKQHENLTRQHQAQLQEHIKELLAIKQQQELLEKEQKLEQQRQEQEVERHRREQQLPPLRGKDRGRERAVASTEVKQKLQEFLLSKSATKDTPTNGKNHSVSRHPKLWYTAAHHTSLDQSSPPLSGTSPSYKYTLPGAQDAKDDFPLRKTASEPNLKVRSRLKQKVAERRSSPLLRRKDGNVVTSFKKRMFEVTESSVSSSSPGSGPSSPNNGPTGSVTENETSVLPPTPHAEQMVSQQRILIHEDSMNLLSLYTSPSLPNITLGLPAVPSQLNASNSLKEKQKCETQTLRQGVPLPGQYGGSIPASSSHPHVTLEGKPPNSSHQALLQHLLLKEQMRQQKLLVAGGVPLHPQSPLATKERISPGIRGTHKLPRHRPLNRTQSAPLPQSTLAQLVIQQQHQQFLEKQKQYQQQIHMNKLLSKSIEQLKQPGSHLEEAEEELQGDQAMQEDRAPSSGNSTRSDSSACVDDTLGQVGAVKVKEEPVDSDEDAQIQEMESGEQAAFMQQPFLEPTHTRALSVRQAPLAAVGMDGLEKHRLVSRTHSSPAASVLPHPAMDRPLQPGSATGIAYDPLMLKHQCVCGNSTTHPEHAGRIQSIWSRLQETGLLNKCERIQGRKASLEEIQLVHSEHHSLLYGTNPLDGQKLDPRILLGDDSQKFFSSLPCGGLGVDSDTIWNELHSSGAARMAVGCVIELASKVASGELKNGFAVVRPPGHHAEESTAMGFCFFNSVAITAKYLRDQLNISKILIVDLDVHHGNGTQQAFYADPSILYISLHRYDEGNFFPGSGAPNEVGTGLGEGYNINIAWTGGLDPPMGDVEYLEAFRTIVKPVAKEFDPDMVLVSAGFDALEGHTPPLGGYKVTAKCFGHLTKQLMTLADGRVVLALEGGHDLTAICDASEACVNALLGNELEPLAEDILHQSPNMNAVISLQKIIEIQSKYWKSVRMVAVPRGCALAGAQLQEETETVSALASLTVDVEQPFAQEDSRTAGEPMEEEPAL
T2 sequence (P56524 whole entry, species assumed): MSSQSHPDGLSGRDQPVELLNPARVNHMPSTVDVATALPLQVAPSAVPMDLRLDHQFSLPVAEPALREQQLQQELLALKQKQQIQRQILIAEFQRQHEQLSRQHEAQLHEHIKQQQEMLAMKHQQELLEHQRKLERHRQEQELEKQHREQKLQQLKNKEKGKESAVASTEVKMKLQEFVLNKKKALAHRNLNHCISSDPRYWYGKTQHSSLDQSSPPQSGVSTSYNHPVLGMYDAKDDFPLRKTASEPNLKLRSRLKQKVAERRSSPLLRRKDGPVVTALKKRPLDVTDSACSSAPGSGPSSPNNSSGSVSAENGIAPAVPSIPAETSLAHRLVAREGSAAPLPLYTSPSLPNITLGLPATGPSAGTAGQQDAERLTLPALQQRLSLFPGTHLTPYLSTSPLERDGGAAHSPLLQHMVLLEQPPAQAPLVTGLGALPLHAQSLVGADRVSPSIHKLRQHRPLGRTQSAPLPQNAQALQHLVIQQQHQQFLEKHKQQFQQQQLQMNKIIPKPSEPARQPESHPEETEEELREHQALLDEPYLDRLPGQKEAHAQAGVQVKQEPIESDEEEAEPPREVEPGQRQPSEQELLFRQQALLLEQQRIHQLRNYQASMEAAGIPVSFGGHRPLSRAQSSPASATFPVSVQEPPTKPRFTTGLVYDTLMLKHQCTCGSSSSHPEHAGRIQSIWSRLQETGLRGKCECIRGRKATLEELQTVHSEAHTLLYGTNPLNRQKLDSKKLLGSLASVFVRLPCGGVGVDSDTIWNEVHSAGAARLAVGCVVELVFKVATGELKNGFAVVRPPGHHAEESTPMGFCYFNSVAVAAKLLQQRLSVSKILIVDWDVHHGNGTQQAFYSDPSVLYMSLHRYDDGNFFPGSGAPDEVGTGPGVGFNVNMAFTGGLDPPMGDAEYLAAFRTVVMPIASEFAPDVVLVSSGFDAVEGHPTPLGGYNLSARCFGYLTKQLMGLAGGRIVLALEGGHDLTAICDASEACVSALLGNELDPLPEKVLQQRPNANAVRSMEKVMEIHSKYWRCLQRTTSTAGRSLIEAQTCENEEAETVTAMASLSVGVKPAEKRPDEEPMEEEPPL

As for `CC[C@H](C(=O)Nc1ncc(C(=O)NO)s1)c1ccc(OC)cc1` [#1a, (S)—N-hydroxy-2-(2-(4-methoxyphenyl)butanamido)thiazole-5-carboxamide], in data set [1], the “tumor uptake and retention” value is “preferential and significant tumor uptake and retention”. For the same compound, the “Fold (1b/1a)” value in data set [2] (ratio of IC50, HDAC9) was found to be 1.1; in data set [3] (ratio of IC50, HDAC4), 1.2.
On to `CC[C@@H](C(=O)Nc1ncc(C(=O)NO)s1)c1ccc(OC)cc1` [#1b, (R)—N-hydroxy-2-(2-(4-methoxyphenyl)butanamido)thiazole-5-carboxamide], for which the negative logarithm of the IC50 (pIC50) in data set [2] (HDAC9) was 6.68; in data set [3] (HDAC4), 6.80.

By pIC50 is commonly meant −log10 of the IC50, conventionally taken in molar units. Low readings indicate a large IC50, high ones a small IC50.
